From US11382956B2, “Amylin analogues” (Zealand Pharma A/S, priority 2016, dated 2022)
Numbered stars: 1 amine (or outer) side, 2 acyl side, 3 side chain; on linkers, the order of the positions; unused ones are H or OH. Bridge positions count the residues as written; N and C are the ends. Square brackets hold non-standard residues; d marks the D form. Peptide text beside a SMILES is read from it. * marks the point of attachment. C20 diacid = O=C(O)CCCCCCCCCCCCCCCCCCC(=O)*; γGlu = O=C(O)[C@H](CCC(=O)[*:2])N[*:1]; Hyp = O=C(O)[C@@H]1C[C@@H](O)CN1; NMeI = CC[C@H](C)[C@H](NC)C(=O)O; Sar = CNCC(=O)O

Assays:
[1] = target: T1, recombinant human calcitonin receptor (hCT-R) (Homo sapiens, UniProt P30988); assay: hCT-R cAMP assay (AlphaScreen) in 1321N1 cells; format: cell-based; conditions: cAMP formation, 45 min stimulation
T1 construct: host or cells: human astrocytoma cell line 1321N1
T1 sequence (P30988 25-474): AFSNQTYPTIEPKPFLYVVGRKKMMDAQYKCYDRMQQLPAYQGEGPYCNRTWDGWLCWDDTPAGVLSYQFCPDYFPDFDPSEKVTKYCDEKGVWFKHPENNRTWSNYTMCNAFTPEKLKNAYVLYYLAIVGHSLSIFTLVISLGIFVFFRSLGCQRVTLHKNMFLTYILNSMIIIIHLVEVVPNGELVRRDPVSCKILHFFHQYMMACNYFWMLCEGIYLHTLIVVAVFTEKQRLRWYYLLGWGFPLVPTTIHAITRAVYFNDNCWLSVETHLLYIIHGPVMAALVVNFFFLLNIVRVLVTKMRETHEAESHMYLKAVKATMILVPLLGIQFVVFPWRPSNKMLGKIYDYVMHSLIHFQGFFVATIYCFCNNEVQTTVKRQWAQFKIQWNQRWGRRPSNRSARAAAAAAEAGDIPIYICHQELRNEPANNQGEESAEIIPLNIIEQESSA
Summary of the method: (§1)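 1321N1 astrocytoma cells expressing recombinant human calcitonin receptor alone or with RAMP3 (AMY3) stimulated 45 min at room temperature with peptide in IBMX-containing buffer. cAMP quantified by AlphaScreen after 1 h bead incubation; EC50 fitted from at least 7 concentrations.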

[2] = target: T2, recombinant human amylin 3 receptor (hAMYR3) (Homo sapiens, UniProt O60896+P30988); assay: hAMYR3 cAMP assay (AlphaScreen) in 1321N1 cells; format: cell-based; conditions: cAMP formation, 45 min stimulation
T2 construct: host or cells: human astrocytoma cell line 1321N1
T2 sequence (P30988 25-474): T1 sequence (P30988 25-474)
T2 sequence (O60896 24-148 partner): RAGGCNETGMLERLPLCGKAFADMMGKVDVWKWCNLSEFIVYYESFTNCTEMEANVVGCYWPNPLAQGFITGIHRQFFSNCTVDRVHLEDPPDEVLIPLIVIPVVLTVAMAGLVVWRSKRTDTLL
Summary of the method: as §1

[3] = Assessment of physical stability: fibril formation by Thioflavin T fluorescence; format: physicochemical; parameters: key: FND = fibrillation not detected; FD = fibrillation detected; conditions: 1 mg/mL peptide
Protocol: Solutions containing (i) 1 mg/mL of test peptide, 40 μM ThT and 50 mM phosphate (Ph) buffer (pH 7.0), (ii) 1 mg/mL of test peptide, 40 μM ThT and 50 mM histidine (His) buffer (pH 7.0), and (iii) 1 mg/mL of test peptide, 40 μM ThT and 50 mM acetate (Ac) buffer (pH 4.0), were loaded in a 96-well black fluorescence plate (clear bottom) in triplicate. Data were collected at fixed intervals of 10 min, each preceded by 300 s of automixing (agitation), over a period of 96 hours at 40° C. Physical stability is determined by measuring the fluorescence intensity over time. A significant increase in intensity is rated as fibrillation detected (FD).

[4] = Assessment of chemical stability in 40 mM buffers at 40° C. (RP-HPLC); format: physicochemical; conditions: 1 mg/mL
Protocol: Samples of each test peptide were dissolved in acetate buffer pH 4 and phosphate buffer pH 6 and 7 (all buffer 40 mM). The final peptide concentration was 1 mg/mL. Samples were placed in glass vials and incubated at 40° C. The samples were analyzed by RP-HPLC on a C8 column with gradient elution using a trifluoroacetic acid/acetonitrile/water eluent system. The area-percentage (area-%) of the main peak was determined by UV spectroscopy at 220 nm at each sampling time point.
The % degradation was calculated by subtracting the […].
The results of the chemical stability assessment after 3 days of incubation time are summarized as % degradation in Table 1 (below).
The results of the chemical stability assessment after 14 days of incubation time are summarized as % degradation in Table 2 (below).

Row | EC50 [1] | EC50 [2] | Fibrillation (in buffer) pH4 acetate ([3]; 50 mM acetate buffer pH 4.0, 96 hours at 40° C.) | Fibrillation (in buffer) pH7 histidine ([3]; 50 mM histidine buffer pH 7.0, 96 hours at 40° C.) | Fibrillation (in buffer) pH7 phosphate ([3]; 50 mM phosphate buffer pH 7.0, 96 hours at 40° C.) | % degradation after 14 days at 40° C. pH4 acetate ([4]; acetate buffer pH 4, 14 days) | % degradation after 14 days at 40° C. pH6 phosphate ([4]; phosphate buffer pH 6, 14 days) | Structure (SMILES)
1 | 21 pM | 7 pM | FD | FD | FD |  |  | CC[C@H](C)[C@@H](C(=O)N[C@@H](CC(C)C)C(=O)N[C@@H](CO)C(=O)N[C@@H](CO)C(=O)N[C@H](C(=O)N[C@@H](CCC(=O)O)C(=O)N[C@H](C(=O)NCC(=O)N[C@@H](CO)C(=O)N[C@@H](CC(N)=O)C(=O)N[C@H](C(=O)N1C[C@H](O)C[C@H]1C(N)=O)[C@@H](C)O)C(C)C)[C@@H](C)O)N(C)C(=O)[C@H](C)NC(=O)CN(C)C(=O)[C@H](Cc1ccccc1)NC(=O)[C@H](CO)NC(=O)[C@H](CO)NC(=O)[C@H](CCCNC(=N)N)NC(=O)[C@H](CCC(N)=O)NC(=O)[C@H](CC(C)C)NC(=O)[C@H](Cc1ccccc1)NC(=O)[C@H](CC(N)=O)NC(=O)[C@H](C)NC(=O)[C@H](CC(C)C)NC(=O)[C@H](CCCNC(=N)N)NC(=O)[C@H](CCC(N)=O)NC(=O)[C@@H](NC(=O)[C@H](C)NC(=O)[C@@H]1CCCCNC(=O)C[C@H](NC(=O)[C@H](CCCCN)NC(=O)CC[C@H](NC(=O)CCCCCCCCCCCCCCCCCCC(=O)O)C(=O)O)C(=O)NCC(=O)N[C@@H]([C@@H](C)O)C(=O)N[C@@H](C)C(=O)N[C@@H]([C@@H](C)O)C(=O)N1)[C@@H](C)O [Compound 43, [19CD]-isoGlu-KD()GTATK()ATQRLANFLQRSSF-Gly(Me)-A-Ile(Me)-LSSTEVGSNT-Hyp-NH2] ({C20 diacid-γGlu}-KDGTATKATQRLANFLQRSSF[Sar]A[NMeI]LSSTEVGSNT[Hyp]-NH2; lactam 2-7)
2 | 19 pM | 3 pM |  |  |  | <1% | 4.6% | CC[C@H](C)[C@@H](C(=O)N[C@@H](CC(C)C)C(=O)N[C@@H](CO)C(=O)N[C@@H](CO)C(=O)N[C@H](C(=O)N[C@@H](CCC(=O)O)C(=O)N[C@H](C(=O)NCC(=O)N[C@@H](CO)C(=O)N[C@@H](CC(N)=O)C(=O)N[C@H](C(=O)N1C[C@H](O)C[C@H]1C(N)=O)[C@@H](C)O)C(C)C)[C@@H](C)O)N(C)C(=O)[C@H](C)NC(=O)CN(C)C(=O)[C@H](Cc1ccccc1)NC(=O)[C@H](CO)NC(=O)[C@H](CO)NC(=O)[C@H](CCCNC(=N)N)NC(=O)[C@H](CCC(N)=O)NC(=O)[C@H](CC(C)C)NC(=O)[C@H](Cc1ccccc1)NC(=O)[C@H](Cc1c[nH]cn1)NC(=O)[C@H](C)NC(=O)[C@H](CC(C)C)NC(=O)[C@H](CCCNC(=N)N)NC(=O)[C@H](CCC(=O)O)NC(=O)[C@@H](NC(=O)[C@H](C)NC(=O)[C@@H]1CSSC[C@H](NC(=O)[C@H](CCCNC(=N)N)NC(=O)CC[C@H](NC(=O)CCCCCCCCCCCCCCCCCCC(=O)O)C(=O)O)C(=O)NCC(=O)N[C@@H]([C@@H](C)O)C(=O)N[C@@H](C)C(=O)N[C@@H]([C@@H](C)O)C(=O)N1)[C@@H](C)O [Ref. 2, [19CD]-isoGlu-RC()GTATC()ATERLAHFLQRSSF-Sar-A-Ile(Me)-LSSTEVGSNT-Hyp-NH2, reference compound] ({C20 diacid-γGlu}-RCGTATCATERLAHFLQRSSF[Sar]A[NMeI]LSSTEVGSNT[Hyp]-NH2; disulfide 2-7)
